The structures appear in SMILES notation.

Experiment [1] has as its target T1, EcDXPS (Escherichia coli, UniProt P77488).
T1 construct: made in house
Kind of experiment: DXPS-IspC coupled assay, apparent Ki on wildtype EcDXPS. In kind it is biochemical. As to conditions: EcDXPS 100 nM, 10 min preincubation; Morrison equation fit; read-out: Ki^app. Here is the method:
To determine inhibitor potency, we used the DXPS-DXP reductoisomerae (DXPS-IspC) coupled assay to measure the activity of recombinant purified EcDXPS[24],[25],[31],[44],[50] in the presence of inhibitors. Reactions were initiated by the addition of substrates following a short preincubation of the inhibitor with enzymes, and initial velocities were determined by monitoring reduced nicotinamide adenine dinucleotide phosphate (NADPH) absorbance at 340 nm. Apparent Ki values were determined by fitting initial velocity data to the Morrison equation,[64],[65] which accounts for the tight-binding nature (Ki^app/[E]total < 10)[66] of inhibitors included in this study and allows for rigorous comparison of inhibitor potencies. […] Inhibitor activities were rationalized based on the predictions made from molecular docking of the corresponding PLThDP adducts into the DXPS active site.
All compounds in this study were evaluated as DXPS inhibitors using the DXPS-IspC coupled assay as previously reported.[24] […] The DXPS reaction was initiated by the addition of substrates (50 μM pyruvate and 500 μM D-GAP). The initial rate of depletion of NADPH was monitored at 340 nm and was used to calculate the initial rate of DXP formation in the presence or absence of inhibitor. Initial rates of DXP formation were plotted as a function of [inhibitor], and Ki^app was determined by fitting the data to the Morrison equation (eq 1)[64],[65] in GraphPad Prism. This approach was deemed appropriate as the concentration of free inhibitor cannot be assumed to remain constant for most of these analogs in which Ki^app values approach the concentration of DXPS.[88],[89] Error is reported as standard deviation from three replicates. Active enzyme concentration ([E]T) was determined following Copeland’s method using 8 (Figure S2B).[88]
The coupled assay was initiated by adding 20 μL of a 10× substrate stock to the preincubated E + I mixture to give a final volume of 200 μL. The final concentration of D-GAP was held constant at 500 μM, and [pyruvate] was added to final concentrations between 0 and 250 μM. The initial rate of NADPH depletion in the IspC-coupled reaction was monitored at 340 nm and was used to calculate the initial rate of DXP formation in the presence or absence of inhibitor. Initial rates were plotted as a function of [pyruvate]. […] Model discrimination analysis employing the Akaike information criterion was performed as well as Lineweaver–Burk analysis to determine the mixed model as the best fit. In all cases, error bars represent the standard deviation from three replicates.

The target in experiment [2] is T2, R99A EcDXPS (Escherichia coli, UniProt P77488, R99A).
T2 construct: made in house
The experiment in a line: Circular dichroism titration (PLThDP formation, apparent KD) on R99A EcDXPS. It counts as binding. Here is the method: (§1) CD titrations of 8 and 10 onto WT, R99A, and R478A EcDXPS variants were conducted at 25 °C under aerobic conditions in 1.5 mL solutions containing 30 μM EcDXPS in 50 mM HEPES pH 8, 100 mM NaCl, 1 mM MgCl2, and 0.2 mM ThDP. Scans were obtained from 280 to 400 nm with a 0.5 s averaging time and 1 nm step following a titration of inhibitor (8: 0.25–30 μM on WT, 0.5–30 μM on R99A and R478A; 10 2.5–30 μM on WT, R99A, and R478A), with a 5 min preincubation of inhibitor with DXPS prior to scanning. […] The CD signals at 294 nm determined from the difference spectra obtained by subtracting the signal of E-ThDP at 294 nm were plotted as a function of [inhibitor] and fit to (1) the quadratic equation described in eq 2 (8 on WT DXPS), where E is the concentration of DXPS taking into account stoichiometric binding and CDmax is the maximal CD signal, or (2) a one-site specific binding curve (all other experiments) using GraphPad Prism Version 9 to calculate an apparent KD. Experiments were conducted in triplicate and the standard error was calculated. [drawing 2] 2
(§2) At the conclusion of the titration described above, the CD signal at 313 nm (previously characterized for LThDP) was recorded. Pyruvate (1 mM) was then added to the mixture, and a CD scan of the resulting solution was conducted as described above, to detect shifts in the CD spectrum that may correlate to LThDP formation. Experiments were conducted in triplicate.

Experiment [3] concerns the target T3, R478A EcDXPS (Escherichia coli, UniProt P77488, R478A).
T3 construct: made in house
Kind of experiment: Circular dichroism titration (PLThDP formation, apparent KD) on R478A EcDXPS. It counts as binding. Here is the method: as §1, §2
Background: Circular dichroism is widely used to follow secondary structure.

The target of experiment [4] is T1, EcDXPS. Kind of experiment: DXPS quaternary structure by native PAGE and analytical gel filtration. How it is done: EcDXPS (20 μM) in buffer (2 mM MgCl2, 5 mM NaCl, 1 mM ThDP, 100 mM HEPES pH 8) was preincubated with 8 ([…]) or no inhibitor for 30 min at 25 °C. Samples were then diluted 2-fold with 2× loading dye (100 mM Tris HCl pH 8, 20% glycerol, 200 mM dithiothreitol (DTT), 0.01% bromophenol blue). Samples (15 μL) were then loaded on a 7.5% PAGE gel. Gel electrophoresis was conducted at 4 °C for 30 min at 120 V, followed by 3 h at 150 V. Protein bands were stained with Protostain Blue. Experiments were performed in triplicate.
Analytical gel filtration was performed on an AKTA-GO FPLC system held at 4 °C fitted with a Cytiva Superdex 200 Increase 5/150 GL column. A 200 μL solution containing 29 μM EcDXPS in 25 mM HEPES, pH 8, 100 mM NaCl, 1 mM MgCl2, 1% glycerol, 10 μM ThDP, and 29 μM 8 or no inhibitor was centrifuged at 13,000 rpm for 10 min to remove particulates. The resulting supernatant was loaded into a 10 μL loop attached to the FPLC via gastight syringes. […] DXPS was analyzed by isocratic elution from the column at a flow of 0.15 mL/min with 1.5 column volumes (4.5 mL). The dimer/tetramer ratio was calculated from the peak area (mL mAu) of the dimer (1.7 mL retention) peak divided by the peak area (mL mAu) of the tetramer (1.4 mL retention) peak. […]

With `CC(=O)P(=O)(O)OCCc1cn(C(Cc2ccccc2)(Cc2ccccc2)C(=O)O)nn1` [Compound 8], the Ki in experiment [1] worked out at 0.0029 ± 0.0005 µM. Moreover, the values for the Kd in experiment [2] and in experiment [3] were 19 ± 3 µM and 11 ± 4 µM, respectively. For the same compound, the “change in PLThDP CD signal upon addition of pyruvate” value in experiment [2] (R99A-PLThDP complex) and in experiment [3] (R478A-PLThDP complex) was “shift in the CD profile toward the characteristic LThDP signal” throughout. Also, in experiment [4] (29 μM EcDXPS, 29 μM 8), the “effect on dimer/tetramer ratio (analytical gel filtration)” value is listed as “small but statistically significant decrease in the dimer/tetramer ratio”. Further, the “effect on EcDXPS oligomeric state (native PAGE)” value in experiment [4] (EcDXPS 20 μM, incubation with 8) is “induce the formation of higher-order enzyme oligomers”.

These data come from paper PMC11019550, “Potent Inhibition of E. coli DXP Synthase by a gem-Diaryl Bisubstrate Analog” (ACS Infectious Diseases, 2024).
